Where two headings read alike, the source gives them in different places.
How the values were obtained:
LOVO cells = test: LOVO CTG proliferation assay (120 h) (CRC, G13D); assay type: cell-based
Method: (§1) LOVO cells (ATCC No. CCL-229) are dispensed into black 384-well plates, flat and clear bottom (Greiner, PNr. 781091) at a density of 1000 cells per well in 60 μl DMEM (Sigma D6429)+10% FCS (fetal calf serum, HyClone, SH30084.03). Cells are incubated overnight at 37° C. in a humidified tissue culture incubator at 5% CO2. Compounds (10 mM stock in DMSO) are added at logarithmic dose series using the ECHO acoustic liquid handler system (Beckman Coulter), normalizing for added DMSO and including DMSO controls. All compound treatments are performed in technical duplicates. For the TO time point measurement, untreated cells are analyzed at the time of compound addition. Plates are incubated for 120 h, and cell viability is measured using CellTiter-Glo luminescent cell viability reagent (Promega product code G7570). Viability (stated as percent of control) is defined as relative luminescence units RLU of each well divided by the RLU of cells in DMSO controls. IC50 values are determined from viability measurements by non-linear regression using a four-parameter model.
(§2) IC50 values of representative compounds according to the invention measured with these assays in the indicated cell lines are presented in Table 46.

[1] = molecular target: KRAS (G12C)::SOS1 protein-protein interaction (Homo sapiens (Human), UniProt P01116, C118S/C51S/C80L/G12C); test: KRAS::SOS1 AlphaScreen binding assay (KRAS G12C); details: GDP
Description: (§3) This assay can be used to examine the potency with which compounds according to the invention binding to (mutated) KRAS inhibit the protein-protein interaction between SOS1 and (mutated) KRAS e.g. KRAS G12C, KRAS G12D. […] Low IC50 values in this assay setting are indicative of strong inhibition of protein-protein interaction between SOS1 and KRAS:
(§4) These assays measure the inhibitory effect of compounds on KRAS mutant protein-protein interactions using the Alpha Screen technology by Perkin Elmer.
(§5) The following (mutant) enzyme forms of KRAS and interacting proteins are used in these assays at the given concentrations:
KRAS (G12C) 1-169, N-terminal 6His-tag for purification, cleaved off, C-terminal avi-tag, biotinylated, mutations: C51S, C80L, C118S (in house); final assay concentration 7.5 nM and SOS1 564-1049, N-terminal 229 GST-tag, TEV cleavage site (Viva Biotech Ltd); final assay concentration 5 nM;
(§6) Test compounds dissolved in DMSO are dispensed onto assay plates (Proxiplate 384 PLUS, white, PerkinElmer; 6008289) using an Access Labcyte Workstation with the Labcyte Echo 55x. For the chosen highest assay concentration of 100 μM, 150 nL of compound solution are transferred from a 10 mM DMSO compound stock solution. A series of eleven fivefold dilutions per compound are transferred to the assay plate, compound dilutions are tested in duplicates. DMSO are added as backfill to a total volume of 150 nL.
(§7) The assays run on a fully automated robotic system in a darkened room below 100 Lux. To 150 nl of compound dilution 10 μl of a mix including KRAS mutant protein, SOS1 (final assay concentrations see above) and GDP nucleotide (Sigma G7127; final assay concentration 10 μM) in assay buffer (1×PBS, 0.1% BSA, 0.05% Tween 20) are added into columns 1-24.
(§8) After 30 minutes incubation time 5 μl of Alpha Screen bead mix in assay buffer are added into columns 1-23. Bead mix consists of AlphaLISA Glutathione Acceptor Beads (PerkinElmer, Cat No AL109) and AlphaScreen Streptavidin Donor Beads (PerkinElmer Cat No 6760002) in assay buffer at a final assay concentration of 10 μg/mL each.
(§9) Plates are kept at room temperature in a darkened incubator. After an additional 60 minutes incubation time the signal is measured in a PerkinElmer Envision HTS Multilabel Reader using the AlphaScreen specs from PerkinElmer.
(§10) Each plate contains up to 16 wells of a negative control depending on the dilution procedure (platewise or serial) (DMSO instead of test compound; with KRAS mutant::SOS1 GOP mix and bead mix; column 23) and 16 wells of a positive control (DMSO instead of test compound; with KRAS mutant::SOS1 GOP mix w/o bead mix; column 24).
(§11) As internal control known inhibitors of KRAS mutant::SOS1 interaction can be measured on each compound plate.
(§12) IC50 values are calculated and analyzed with Boehringer Ingelheim's MEGALAB C50 application using a 4 parametric logistic model.
(§13) Tables of example compounds disclosed herein contain IC50 values determined using the above assays (see Table 43).

[2] = molecular target: KRAS (G12D)::SOS1 protein-protein interaction (Homo sapiens (Human), UniProt P01116, G12D); test: KRAS::SOS1 AlphaScreen binding assay (KRAS G12D); details: GDP
Description: as §3, §4, §5
KRAS (G12D) 1-169, N-terminal 6His-tag, C-terminal avi-tag (Xtal BioStructures, Inc.); final assay concentration 10 nM and SOS1 564-1049, N-terminal 229 GST-tag, TEV cleavage site (Viva Biotech Ltd); final assay concentration 5 nM;
as §6, §7, §8, §9, §10, §11, §12, §13

AsPC-1 cells = test: AsPC-1 CTG proliferation assay (120 h) (pancreatic cancer, G12D); assay type: cell-based
Method: as §1, with “AsPC-1” for “LOVO”, “CRL-1682)” for “No. CCL-229)”, “500” for “1000”, “RPMI ATCC-Formulation (PAN P04-18047)+10%” for “DMEM (Sigma D6429)+10%”
as §2

Sequence of KRAS (G12C)::SOS1 protein-protein interaction (P01116 other isoform, or with tags, fused parts or gaps G12C/C51S/C80L/C118S): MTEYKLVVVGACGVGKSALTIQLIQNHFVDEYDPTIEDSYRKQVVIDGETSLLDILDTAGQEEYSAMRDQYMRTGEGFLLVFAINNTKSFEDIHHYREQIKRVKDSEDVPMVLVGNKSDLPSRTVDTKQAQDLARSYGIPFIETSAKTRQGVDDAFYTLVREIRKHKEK
Sequence of KRAS (G12D)::SOS1 protein-protein interaction (P01116 other isoform, or with tags, fused parts or gaps G12D): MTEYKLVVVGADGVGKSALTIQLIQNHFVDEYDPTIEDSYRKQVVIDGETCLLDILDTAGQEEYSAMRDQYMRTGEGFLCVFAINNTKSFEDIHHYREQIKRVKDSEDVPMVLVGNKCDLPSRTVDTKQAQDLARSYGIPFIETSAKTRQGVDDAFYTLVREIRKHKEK

SMILES	IC50 (LOVO cells; Homo sapiens)	IC50 [1]	IC50 [2]	IC50 (AsPC-1 cells; Homo sapiens, ASPC1)	IC50 (LOVO cells)	IC50 (AsPC-1 cells)
C[C@H](Oc1nc(-c2onc3c2CCC[C@@]32CCCc3sc(N)c(C#N)c32)nc2c1n(C)c(=O)n2[C@@]12COC[C@@H]1C2)[C@@H]1CCCN1C [I-29]	4 nM	1 nM	1 nM	322 nM	–	–
C[C@H](Oc1nc(-c2onc3c2CCC[C@@]32CCCc3sc(N)c(C#N)c32)nc2c1n(C)c(=O)n2[C@@H]1CCOC1)[C@@H]1CCCN1C [I-20]	6 nM	1 nM	1 nM	246 nM	–	–
C[C@H](Oc1nc(-c2onc3c2CCC[C@@]32CCCc3sc(N)c(C#N)c32)nc2c1n(C)c(=O)n2[C@H]1CC2CCC1O2)[C@@H]1CCCN1C (stereo partly drawn) [I-17]	14 nM	2 nM	2 nM	1480 nM	–	–
CO[C@H]1C[C@@H](n2c(=O)n(C)c3c(O[C@@H](C)[C@@H]4CCCN4C)nc(-c4onc5c4CCC[C@@]54CCCc5sc(N)c(C#N)c54)nc32)C1 [I-31]	36 nM	2 nM	1 nM	1070 nM	–	–
CO[C@@H]1C[C@@H]([C@H](C)Oc2nc(-c3onc4c3CCC[C@@]43CCCc4sc(N)c(C#N)c43)nc3c2n(C)c(=O)n3[C@@H]2CCCOC2)N(C)C1 [I-14]	6 nM	2 nM	1 nM	767 nM	–	–
C[C@H](Oc1nc(-c2noc3c2CCC[C@@]32CCCc3sc(N)c(C#N)c32)nc2c1CC[C@]21CNCCO1)[C@@H]1C[C@@H](F)CN1C [II-20]	–	2 nM	1 nM	–	253 nM	215 nM
C[C@H](Oc1nc(-c2onc3c2CCC[C@@]32CCCc3sc(N)c(C#N)c32)nc2c1n(C)c(=O)n2[C@H]1CCCOC1)[C@@H]1CCCN1C [I-11]	541 nM	4 nM	6 nM	4480 nM	–	–
C[C@H](Oc1nc(-c2noc3c2CCC[C@@]32CCCc3sc(N)c(C#N)c32)nc2c1CN(c1ncccn1)[C@]21CCOC1)[C@@H]1CCCN1C [II-7a]	11 nM	2 nM	2 nM	307 nM	–	–
C[C@H](Oc1nc(-c2onc3c2CCC[C@@]32CCCc3sc(N)c(C#N)c32)nc2c1N(C)C(=O)CN2[C@@H]1CCOC1)[C@@H]1CCCN1C [I-37]	31 nM	7 nM	8 nM	4120 nM	–	–
C[C@H](Oc1nc(-c2onc3c2CCC[C@@]32CCCc3sc(N)c(C#N)c32)nc2c1n(C)c(=O)n2[C@@H]1CCOC1)[C@@H]1C[C@@H]2C[C@@H]2N1C [I-28]	105 nM	2 nM	4 nM	1720 nM	–	–
CO[C@H]1C[C@@H]([C@H](C)Oc2nc(-c3onc4c3CCC[C@@]43CCCc4sc(N)c(C#N)c43)nc3c2n(C)c(=O)n3[C@@H]2CCOC2)N(C)C1 [I-2]	3 nM	1 nM	2 nM	1970 nM	–	–
Cc1cc2c(O[C@@H](C)[C@@H]3CCCN3C)nc(-c3onc4c3CCC[C@@]43CCCc4sc(N)c(C#N)c43)nc2n1[C@@H]1CCOC1 [I-40]	43 nM	2 nM	2 nM	500 nM	–	–

Source: US20250019385A1, “SPIROCYCLIC ANNULATED 2-AMINO-3-CYANO THIOPHENES AND DERIVATIVES FOR THE TREATMENT OF CANCER” (Boehringer Ingelheim International GmbH, priority 2023, published 2025)
